Data reported in patent US20060216238A1, “Compositions and methods for targeting or imaging a tissue in a vertebrate subject” (priority 2005, published 2006).

Legend:
KDR receptor (VEGFR2) = KDR receptor (VEGFR2) (Homo sapiens, UniProt P35968); assay: Binding assay using ELISA
[1] = molecular target: folate receptor (FR) on KB and HeLa cells (Homo sapiens, UniProt P15328); conditions: 4° C., both cell lines
[2] = RT-PCR detection of CPMV RNA in tissues of mice inoculated orally (gavage); conditions: for CPMV RNA detected in bone marrow, mice positive/examined / CPMV RNA detected in brain, mice positive/examined / CPMV RNA detected in duodenum, mice positive/examined / CPMV RNA detected in ileum, mice positive/examined / CPMV RNA detected in jejunum, mice positive/examined / CPMV RNA detected in kidney, mice positive/examined / CPMV RNA detected in liver, mice positive/examined / CPMV RNA detected in lung, mice positive/examined / CPMV RNA detected in spleen, mice positive/examined / CPMV RNA detected in stomach, mice positive/examined: oral
[3] = tested on: HUVECS stimulated with vegf; assay: Endothelial cell proliferation assay using CFDA; format: cell-based, human; conditions: 30 ug/ml; listed as wt CPMV
Description: Measure in vitro angiogenesis by endothelial cell proliferation assay. HUVECs were plated in 96 well plates at 10^4 cells/well in 200 ul EGM2 complete medium. Cells were incubated for 24 h at 37° C. in 5% CO2. cells were then washed once in PBS and incubated in serum free, glucose free medium for 24 h to suppress cell growth. Further, the cells were exposed to various treatments like 10% FBS or VEGF165 in the presence or absence of the targeting CPMV chimeras. Wild type CPMV was used as a control. After 48 h incubation, 1 μl of CFDA was added to the wells and the plated were incubated for additional 24 h. The cells were then placed on ice, washed in PBS 3× and finally fixed in cold 10% TCA for 10 minutes. After washing, the cells were lysed and the CFDA incorporation was read at 488 nm.

[4] = Stability of CPMV particles in simulated gastric conditions (SGF, SIF); format: in vitro ADME
Description: (§1) Stability of CPMV particles in simulated gastric conditions. Simulated gastric fluid (SGF) and simulated intestinal fluid (SIF) were prepared according to Takagi et al. Takagi et al., Biol. Pharm. Bull 26:969-973, 2003. Briefly, pepsin (3.8 mg; Sigma) was dissolved into 5 ml of gastric control fluid (2 mg/ml NaCl, pH 2.0). SIF was prepared by dissolving pancreatin, (10 mg/ml; Sigma) in intestinal control fluid (0.05 M […], pH 6.8). Both solutions were used within the same day. SGF (400 μl) was first incubated at 37° C. for 2 minutes before addition of CPMV (200 μg), giving a ratio of 10 U of pepsin activity/μg of CPMV. The tube contents were mixed by mild vortexing and the tube was immediately placed in a 37° C. water bath for time points ranging from 0-60 minutes, followed by neutralization with 70 μl of 200 mM sodium bicarbonate solution. Similarly, SIF was incubated at 37° C. for 2 minutes before addition of CPMV (200 μg) and the tube contents were placed in a 37° C. water bath for time points up to 120 minutes. Aliquots of virus exposed to SGF or SIF were mixed with 5 μl of NuPAGE 4× LDS-sample buffer, run on 4-12% SDS-PAGE gels, and stained with Simply Blue Safe Stain (Invitrogen). […]

cowpea plants = assay: Infectivity of SGF- or SIF-treated CPMV on cowpea plants; design: species or system Vigna unguiculata; conditions: SGF 60 minutes or SIF 120 minutes, day 14 post-inoculation
Description: as §1

folate receptor (FR) on KB and HeLa cells, sequence (P15328 25-234): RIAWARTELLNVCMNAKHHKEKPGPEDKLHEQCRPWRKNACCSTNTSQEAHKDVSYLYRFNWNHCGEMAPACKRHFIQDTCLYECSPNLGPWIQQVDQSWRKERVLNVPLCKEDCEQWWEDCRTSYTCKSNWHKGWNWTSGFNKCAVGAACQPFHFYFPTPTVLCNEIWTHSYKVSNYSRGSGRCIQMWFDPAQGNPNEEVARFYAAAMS
KDR receptor (VEGFR2), sequence (P35968 20-1356): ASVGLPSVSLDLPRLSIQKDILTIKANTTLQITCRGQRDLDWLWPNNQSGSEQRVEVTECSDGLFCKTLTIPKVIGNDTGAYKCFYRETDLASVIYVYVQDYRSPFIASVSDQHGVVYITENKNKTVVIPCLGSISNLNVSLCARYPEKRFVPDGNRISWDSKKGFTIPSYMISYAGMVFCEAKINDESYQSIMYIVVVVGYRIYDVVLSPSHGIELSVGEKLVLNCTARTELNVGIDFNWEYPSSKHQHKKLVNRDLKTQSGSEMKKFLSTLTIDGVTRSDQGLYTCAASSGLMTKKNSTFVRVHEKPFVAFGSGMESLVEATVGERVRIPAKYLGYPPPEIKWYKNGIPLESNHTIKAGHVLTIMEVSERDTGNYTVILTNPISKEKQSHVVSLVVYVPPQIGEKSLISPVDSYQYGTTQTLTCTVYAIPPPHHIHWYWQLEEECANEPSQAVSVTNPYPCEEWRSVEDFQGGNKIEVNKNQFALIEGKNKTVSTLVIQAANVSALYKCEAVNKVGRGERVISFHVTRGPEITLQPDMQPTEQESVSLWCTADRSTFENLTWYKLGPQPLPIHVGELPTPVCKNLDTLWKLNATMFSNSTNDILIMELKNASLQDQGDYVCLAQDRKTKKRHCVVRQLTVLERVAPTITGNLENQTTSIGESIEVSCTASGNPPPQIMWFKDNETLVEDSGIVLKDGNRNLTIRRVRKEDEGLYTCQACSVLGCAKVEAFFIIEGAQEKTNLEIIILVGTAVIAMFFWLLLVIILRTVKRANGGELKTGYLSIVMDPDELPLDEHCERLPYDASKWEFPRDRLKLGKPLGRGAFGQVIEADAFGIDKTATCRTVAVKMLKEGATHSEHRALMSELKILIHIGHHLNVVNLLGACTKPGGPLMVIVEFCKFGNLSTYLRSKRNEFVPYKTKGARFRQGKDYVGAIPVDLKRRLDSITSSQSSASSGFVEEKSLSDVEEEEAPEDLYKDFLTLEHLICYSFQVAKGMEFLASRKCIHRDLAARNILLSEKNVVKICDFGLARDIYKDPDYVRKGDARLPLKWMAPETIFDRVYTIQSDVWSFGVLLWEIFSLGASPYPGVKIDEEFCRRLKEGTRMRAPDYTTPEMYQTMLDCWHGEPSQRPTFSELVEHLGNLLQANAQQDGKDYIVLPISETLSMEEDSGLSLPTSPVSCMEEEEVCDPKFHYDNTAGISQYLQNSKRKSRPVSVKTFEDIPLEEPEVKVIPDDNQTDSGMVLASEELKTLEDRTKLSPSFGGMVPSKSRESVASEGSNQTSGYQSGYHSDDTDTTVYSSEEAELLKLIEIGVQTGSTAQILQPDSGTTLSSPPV

cowpea mosaic virus [CPMV]
binding to KDR receptor in ELISA (KDR receptor (VEGFR2)): did not show any detectable binding
non-specific binding to the cell surface [1]: significant non-specifig binding
CPMV RNA in the blood ([2]; oral gavage, 4 hours, 1 day, 2 days, 3 days): detected in the blood of all orally gavaged mice
CPMV RNA detected in bone marrow, mice positive/examined ([2]; D1, Non-perfused): 3/3
CPMV RNA detected in brain, mice positive/examined ([2]; D1, Non-perfused): 3/3
CPMV RNA detected in duodenum, mice positive/examined ([2]; D1, Non-perfused): 3/3
CPMV RNA detected in ileum, mice positive/examined ([2]; D1, Non-perfused): 3/3
CPMV RNA detected in jejunum, mice positive/examined ([2]; D1, Non-perfused): 3/3
CPMV RNA detected in kidney, mice positive/examined ([2]; D1, Non-perfused): 3/3
CPMV RNA detected in liver, mice positive/examined ([2]; D1, Non-perfused): 3/3
CPMV RNA detected in lung, mice positive/examined ([2]; D1, Non-perfused): 3/3
CPMV RNA detected in spleen, mice positive/examined ([2]; D1, Non-perfused): 3/3
CPMV RNA detected in stomach, mice positive/examined ([2]; D1, Non-perfused): 3/3
CPMV RNA detected in bone marrow, mice positive/examined ([2]; D1, Perfused): 2/3
CPMV RNA detected in brain, mice positive/examined ([2]; D1, Perfused): 3/3
CPMV RNA detected in duodenum, mice positive/examined ([2]; D1, Perfused): 3/3
CPMV RNA detected in ileum, mice positive/examined ([2]; D1, Perfused): 3/3
CPMV RNA detected in jejunum, mice positive/examined ([2]; D1, Perfused): 3/3
CPMV RNA detected in kidney, mice positive/examined ([2]; D1, Perfused): 3/3
CPMV RNA detected in liver, mice positive/examined ([2]; D1, Perfused): 3/3
CPMV RNA detected in lung, mice positive/examined ([2]; D1, Perfused): 3/3
CPMV RNA detected in spleen, mice positive/examined ([2]; D1, Perfused): 3/3
CPMV RNA detected in stomach, mice positive/examined ([2]; D1, Perfused): 2/3
CPMV RNA detected in bone marrow, mice positive/examined ([2]; D2, Non-perfused): 0/3
CPMV RNA detected in brain, mice positive/examined ([2]; D2, Non-perfused): 1/3
CPMV RNA detected in duodenum, mice positive/examined ([2]; D2, Non-perfused): 1/3
CPMV RNA detected in ileum, mice positive/examined ([2]; D2, Non-perfused): 3/3
CPMV RNA detected in jejunum, mice positive/examined ([2]; D2, Non-perfused): 0/3
CPMV RNA detected in kidney, mice positive/examined ([2]; D2, Non-perfused): 0/3
CPMV RNA detected in liver, mice positive/examined ([2]; D2, Non-perfused): 3/3
CPMV RNA detected in lung, mice positive/examined ([2]; D2, Non-perfused): 1/3
CPMV RNA detected in spleen, mice positive/examined ([2]; D2, Non-perfused): 1/3
CPMV RNA detected in stomach, mice positive/examined ([2]; D2, Non-perfused): 1/3
CPMV RNA detected in bone marrow, mice positive/examined ([2]; D2, Perfused): 0/3
CPMV RNA detected in brain, mice positive/examined ([2]; D2, Perfused): 1/3
CPMV RNA detected in duodenum, mice positive/examined ([2]; D2, Perfused): 1/3
CPMV RNA detected in ileum, mice positive/examined ([2]; D2, Perfused): 1/3
CPMV RNA detected in jejunum, mice positive/examined ([2]; D2, Perfused): 1/3
CPMV RNA detected in kidney, mice positive/examined ([2]; D2, Perfused): 3/3
CPMV RNA detected in liver, mice positive/examined ([2]; D2, Perfused): 3/3
CPMV RNA detected in lung, mice positive/examined ([2]; D2, Perfused): 2/3
CPMV RNA detected in spleen, mice positive/examined ([2]; D2, Perfused): 0/3
CPMV RNA detected in stomach, mice positive/examined ([2]; D2, Perfused): 1/3
CPMV RNA detected in bone marrow, mice positive/examined ([2]; D3, Non-perfused): 1/3
CPMV RNA detected in brain, mice positive/examined ([2]; D3, Non-perfused): 3/3
CPMV RNA detected in duodenum, mice positive/examined ([2]; D3, Non-perfused): 2/3
CPMV RNA detected in ileum, mice positive/examined ([2]; D3, Non-perfused): 2/3
CPMV RNA detected in jejunum, mice positive/examined ([2]; D3, Non-perfused): 2/3
CPMV RNA detected in kidney, mice positive/examined ([2]; D3, Non-perfused): 1/3
CPMV RNA detected in liver, mice positive/examined ([2]; D3, Non-perfused): 2/2
CPMV RNA detected in lung, mice positive/examined ([2]; D3, Non-perfused): 1/3
CPMV RNA detected in spleen, mice positive/examined ([2]; D3, Non-perfused): 0/3
CPMV RNA detected in stomach, mice positive/examined ([2]; D3, Non-perfused): 3/3
CPMV RNA detected in bone marrow, mice positive/examined ([2]; D3, Perfused): 0/3
CPMV RNA detected in brain, mice positive/examined ([2]; D3, Perfused): 2/3
CPMV RNA detected in duodenum, mice positive/examined ([2]; D3, Perfused): 0/2
CPMV RNA detected in ileum, mice positive/examined ([2]; D3, Perfused): 1/3
CPMV RNA detected in jejunum, mice positive/examined ([2]; D3, Perfused): 0/2
CPMV RNA detected in kidney, mice positive/examined ([2]; D3, Perfused): 2/3
CPMV RNA detected in liver, mice positive/examined ([2]; D3, Perfused): 3/3
CPMV RNA detected in lung, mice positive/examined ([2]; D3, Perfused): 1/3
CPMV RNA detected in spleen, mice positive/examined ([2]; D3, Perfused): 0/3
CPMV RNA detected in stomach, mice positive/examined ([2]; D3, Perfused): 0/3
effect on cell growth/proliferation [3]: did not affect cell growth/proliferation
integrity on Coomassie-stained gel after SGF ([4]; SGF, pepsin pH 2.0, 37° C., 0-60 minutes): remained intact
integrity on Coomassie-stained gel after SIF ([4]; SIF, pancreatin pH 6.8, up to 120 minutes): remained intact
infectivity on cowpea plants after SGF or SIF (cowpea plants): infectivity similar to untreated CPMV
